This is an account of results in patent US20240252488A1 (KOREA RESEARCH INSTITUTE OF CHEMICAL TECHNOLOGY, priority 2020, published 2024).

One assay relates to FADD−/− Jurkat cells. Briefly: Necroptosis inhibition assay, TNF-α-induced necroptosis (CellTiter-Glo 2.0). The class given is cell-based, human. Conditions: TNF-α 15 ng/mL; for Necroptosis inhibition assay (Rescue %) 1 μM: compound 1 μM; for Necroptosis inhibition assay (Rescue %) 10 μM: compound 10 μM. In short, it runs like this: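 Necroptosis induced by 15 ng/mL TNF-α (final) for 20–24 h at 37 °C, after a 30 min room-temperature pretreatment of FADD-deficient Jurkat cells with 0.1, 1 or 10 μM compound. ATP-based luminescence gave viability, from which inhibition rate and cytotoxicity were derived.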
For orientation: Cellular ATP, detected with luciferase, serves as a proxy for viable cell number.

Assay [1] addresses T1, MLKL (Homo sapiens, UniProt Q8NB16).
T1 sequence (Q8NB16 1-471): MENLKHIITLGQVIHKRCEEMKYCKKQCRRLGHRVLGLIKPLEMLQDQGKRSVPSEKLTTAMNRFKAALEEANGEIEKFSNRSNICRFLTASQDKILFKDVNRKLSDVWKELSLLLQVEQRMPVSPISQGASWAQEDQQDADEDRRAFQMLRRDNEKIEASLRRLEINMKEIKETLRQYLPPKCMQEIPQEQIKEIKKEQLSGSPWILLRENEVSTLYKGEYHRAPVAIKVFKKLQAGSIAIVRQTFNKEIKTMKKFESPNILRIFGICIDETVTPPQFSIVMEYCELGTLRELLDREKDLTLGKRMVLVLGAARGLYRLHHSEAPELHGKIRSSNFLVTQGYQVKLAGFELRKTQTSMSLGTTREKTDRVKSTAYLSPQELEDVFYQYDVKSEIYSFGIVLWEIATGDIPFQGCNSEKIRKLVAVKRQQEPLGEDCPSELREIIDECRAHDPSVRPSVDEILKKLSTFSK
The assay can be described thus: MLKL degradation assay in HepG2 cell line (western blot). Also on record: endogenous in cells; host or cells: HepG2 or HaCaT. The class given is cell-based. The settings on record: cell line not given; for Degradation assay (Degradation %) 1 μM: compound 1 μM; for Degradation assay (Degradation %) 10 μM: compound 10 μM. In short, it runs like this: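 Western blot chemiluminescence of MLKL in equal-protein lysates (10-15 μg, BCA-adjusted). Before lysis, HepG2 cells were exposed to 1 or 10 μM (final) test compound for 20-24 h at 37 °C.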
On the technique in general: A western blot detects proteins with antibodies after separation by electrophoresis.

Assay [2] addresses T1, MLKL. Briefly: Measurement of binding affinity with MLKL receptor (competitive binding assay, Kd). Also noted: made in house; host or cells: HEK 293 cell line (T7 phage in E. coli BL21-derived host is also described). In short, it runs like this: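 MLKL was produced in HEK 293 cells and tagged with DNA for detection. Liganded beads were blocked with excess biotin and washed to cut non-specific binding, then compounds (111× DMSO stocks, 0.9% DMSO in assay) competed for binding. Eluate kinase was measured by qPCR for Kd.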

Structures are written as SMILES.

By Kd is commonly meant the concentration at which binding is half-saturated. Higher therefore signals a looser complex. With `Nc1ncc(-c2cnn(C3CCN(C[C@H]4CC[C@H](CNC(=O)C5CCN(c6cccc7c6C(=O)N(C6CCC(=O)NC6=O)C7=O)CC5)CC4)CC3)c2)nc1C(=O)O[C@@H](C(=O)Nc1ccc(F)cc1)c1ccccc1` (stereo partly drawn) [TDH-349, (R)-2-((4-fluorophenyl)amino)-2-oxo-1-phenylethyl 3-amino-6-(1-(1-(((1r,4r)-4-((1-(2-(2,6-dioxopiperidin-3-yl)-1,3-dioxoisoindolin-4-yl)piperidine-4-carboxamido)methyl)cyclohexyl)methyl)piperidin-4-yl)-1H-pyrazol-4-yl)pyrazine-2-carboxylate], in the assay with FADD−/− Jurkat cells, the “Necroptosis inhibition assay (Rescue %) 1 μM” value worked out at 45.54% and the “Necroptosis inhibition assay (Rescue %) 10 μM” value worked out at 42.11%. On MLKL [1], the “Degradation assay (Degradation %) 1 μM” value is listed as 93.71% and the “Degradation assay (Degradation %) 10 μM” value came to 92.68%. The compound also came in with an equilibrium dissociation constant (Kd) at MLKL [2] of 3700 pM.
For `Nc1ncc(-c2cnn(C3CCN(CC4CCN(C(=O)COc5cccc6c5C(=O)N(C5CCC(=O)NC5=O)C6=O)CC4)CC3)c2)nc1C(=O)O[C@@H](C(=O)Nc1ccc(F)cc1)c1ccccc1` (stereo partly drawn) [TDH-148, (R)-2-((4-fluorophenyl)amino)-2-oxo-1-phenylethyl 3-amino-6-(1-(1-((1-(2-((2-(2,6-dioxopiperidin-3-yl)-1,3-dioxoisoindolin-4-yl)oxy)acetyl)piperidin-4-yl)methyl)piperidin-4-yl)-1H-pyrazol-4-yl)pyrazine-2-carboxylate] the same measures were 54.25%, 15.48%, 46.29%, 48.24% and 1400 pM.
As for `COc1ccc(C(=O)N2CCC(OCCN3CCC(CN4CCC(n5cc(-c6cnc(N)c(C(=O)O[C@@H](C(=O)Nc7ccc(F)cc7)c7ccccc7)n6)cn5)CC4)CC3)CC2)cc1N1CCC(=O)NC1=O` [TDH-506, (R)-2-((4-fluorophenyl)amino)-2-oxo-1-phenylethyl 3-amino-6-(1-(1-((1-(2-((1-(3-(2,4-dioxotetrahydropyrimidin-1(2H)-yl)-4-methoxybenzoyl)piperidin-4-yl)oxy)ethyl)piperidin-4-yl)methyl)piperidin-4-yl)-1H-pyrazol-4-yl)pyrazine-2-carboxylate], in the assay with FADD−/− Jurkat cells (FADD−/− Jurkat cells), the “Necroptosis inhibition assay (Rescue %) 1 μM” value stood at 75.45% and the “Necroptosis inhibition assay (Rescue %) 10 μM” value is 48.09%. Besides, at MLKL [1], the “Degradation assay (Degradation %) 1 μM” value is reported as 88.53% and the “Degradation assay (Degradation %) 10 μM” value stood at 88.65%. Also, the affinity on MLKL [2], expressed as Kd, was 600 pM.
`Nc1ncc(-c2cnn([C@@H]3CCN(CC4CCN(C(=O)COc5cccc6c5C(=O)N(C5CCC(=O)NC5=O)C6=O)CC4)C3)c2)nc1C(=O)OC(C(=O)Nc1ccc(F)cc1)c1ccccc1` (stereo partly drawn) [TDH-287, 2-((4-fluorophenyl)amino)-2-oxo-1-phenylethyl 3-amino-6-(1-((3R)-1-((1-(2-((2-(2,6-dioxopiperidin-3-yl)-1,3-dioxoisoindolin-4-yl)oxy)acetyl)piperidin-4-yl)methyl)pyrrolidin-3-yl)-1H-pyrazol-4-yl)pyrazine-2-carboxylate]: in the assay on FADD−/− Jurkat cells, the “Necroptosis inhibition assay (Rescue %) 1 μM” value was found to be 71.05% and the “Necroptosis inhibition assay (Rescue %) 10 μM” value was found to be 72.7%. In addition, on MLKL [1], the “Degradation assay (Degradation %) 1 μM” value turned out to be 75.04% and the “Degradation assay (Degradation %) 10 μM” value is reported as 65.94%. At MLKL [2], the Kd worked out at 3700 pM.
On to `Nc1ncc(-c2cnn(C3CCN(CC4CCN(CC5CCN(C(=O)c6ccc7c(N8CCC(=O)NC8=O)coc7c6)CC5)CC4)CC3)c2)nc1C(=O)O[C@@H](C(=O)Nc1ccc(F)cc1)c1ccccc1` [TDH-555, (R)-2-((4-fluorophenyl)amino)-2-oxo-1-phenylethyl 3-amino-6-(1-(1-((1-((1-(3-(2,4-dioxotetrahydropyrimidin-1(2H)-yl)benzofuran-6-carbonyl)piperidin-4-yl)methyl)piperidin-4-yl)methyl)piperidin-4-yl)-1H-pyrazol-4-yl)pyrazine-2-carboxylate], for which, in the assay on FADD−/− Jurkat cells (FADD−/− Jurkat cells), the “Necroptosis inhibition assay (Rescue %) 1 μM” value is on record as 47.10% and the “Necroptosis inhibition assay (Rescue %) 10 μM” value is reported as −51.39%. Moreover, on MLKL [1], the “Degradation assay (Degradation %) 1 μM” value was 78.56%. Moreover, the Kd at MLKL [2] is 220 pM.
On to `COc1ccc(C(=O)N2CCC(CN3CCC(CCN4CCC(n5cc(-c6cnc(N)c(C(=O)O[C@@H](C(=O)Nc7ccc(F)cc7)c7ccccc7)n6)cn5)CC4)CC3)CC2)cc1N1CCC(=O)NC1=O` [TDH-505, (R)-2-((4-fluorophenyl)amino)-2-oxo-1-phenylethyl 3-amino-6-(1-(1-(2-(1-((1-(3-(2,4-dioxotetrahydropyrimidin-1(2H)-yl)-4-methoxybenzoyl)piperidin-4-yl)methyl)piperidin-4-yl)ethyl)piperidin-4-yl)-1H-pyrazol-4-yl)pyrazine-2-carboxylate], for which, in the assay on FADD−/− Jurkat cells (FADD−/− Jurkat cells), the “Necroptosis inhibition assay (Rescue %) 1 μM” value worked out at 102.00% and the “Necroptosis inhibition assay (Rescue %) 10 μM” value amounted to 76.87%. On MLKL [1], the “Degradation assay (Degradation %) 1 μM” value was found to be 90.52% and the “Degradation assay (Degradation %) 10 μM” value is reported as 94.63%. The compound further returned a Kd at MLKL [2] of 360 pM.
